Measurements taken from US20090012088A1 (priority 2005, published 2009).
“Also recorded” adds a separate entry of the source.

Columns and labels:
[1] = tested on: NAD^+ depletion in HL-60 cell lysate; test: Whole cell assay screen: NAD+ depletion in H2O2-activated HL-60 cell lysate; format: cell-based
Protocol: To identify a non-toxic, non-DNA intercalating, cell permeable small molecule inhibitor of PARG, a high-throughput screen is devised. Given the severe challenges in isolating enough of the PAR substrate for an in vitro screen directly for PARG inhibition, we develop a primary screen that utilizes cell lysates and, in particular, mammalian cell lysates. In this assay, HL-60 cells are treated with H2O2 to damage their DNA (which activates PARP-1) and then lyse the cells. In individual wells of a 384-well plate, this cell lysate is incubated with 22,000 different small molecules from an in-house compound collection; these compounds are either purchased (from ChemBridge Corp.) or collected from various sources at the University of Illinois. (28) NAD^+ levels are measured using a fluorescent method based on the chemical conversion of NAD^+ to a fluorescent product (29, 30) (FIG. 14A). The amount of NAD^+ consumed in each well is monitored, and any compounds that prevent NAD^+ consumption are classified “hits” in this primary screen.
Library screen: 12.5 μL of Lysing PARP buffer (50 mM Tris, 10 mM MgCl2, pH 8.0, 1% Triton X-100) containing 100 μM NAD^+ is added to each well of a 384-well plate. Library compounds at 10 mM in DMSO are transferred using a 384-well pin transfer device that delivers 0.1 μL. HL-60 cells are spun down at 200 g for 5 min. and resuspended in Lysing PARP buffer to a concentration of 8×10^6 cells/mL. 10 μL of a 30% H2O2 solution is added per mL of cells. 12.5 μL of the activated cell lysate is added to the plates. The plates are incubated for 60 min. at 37° C. The concentration of NAD^+ is then determined using a fluorescent assay^1. 10 μL of a 2 M KOH solution and 10 μL of a 20% acetophenone solution (in ethanol) is added to each well. The plate is then incubated at 4° C. for 10 min. 45 μL of a 88% formic acid solution was added to each well. The plate was then incubated for 5 min. in a 110° C. oven. Once the plate cools, the fluorescent intensity of each well is determined on a Criterion Analyst AD (Molecular Devices) with an excitation of 360 nm and an emission of 445 nm.

[2] = tested on: primary dopaminergic neurons from the midbrain of embryonic rats; test: Protection of primary dopaminergic neurons from rotenone (TH/MAP2 immunocytochemistry); format: cell-based, rat; conditions: 100 nM rotenone, 48 h, % TH+ of MAP2+ cells
Protocol: With in vitro PARG inhibition, cell permeability, a structure-activity-relationship, and protection in cell culture models established, the protective properties of PIP-1 are evaluated in cultures of primary dopaminergic neurons taken from the midbrain of embryonic rats. After isolation, these neurons are treated with 100 nM rotenone and a range of PIP-1 concentrations. Cells are stained with antibodies to MAP2 and tyrosine hydroxylase (TH) to determine the proportion of dopaminergic neurons remaining.
Preparation of Primary Mesencephalic Cultures: Primary Midbrain Cultures are prepared using a modified version of a previously described protocol^2. All of the procedures involving animal handling are reviewed and approved by the Purdue Animal Care and Use Committee. […]
Treatment of primary cultures with rotenone and PIP-1: AraC-treated primary cultures are incubated in fresh media for 72 h. […] After 48 h, the cells are analyzed immunocytochemically as described below.
Immunocytochemistry: Primary cells are fixed in 4% (w/v) paraformaldehyde in PBS for 30 min. […] MAP2- and TH-immunoreactive primary neurons are counted in 10 randomly chosen observation fields for each experimental condition using a Nikon TE2000-U inverted fluorescence microscope at a total magnification of 200×. The data are expressed as the percentage of MAP2-positive neurons that are also TH-positive. […]

Row | Structure (SMILES) | Inhibition of NAD+ depletion in the whole cell assay [1] | Protection of dopaminergic neurons from rotenone induced cell death [2]
1 | Nc1c(Cl)cnn(-c2ccccc2)c1=O [compound 5, 4-Amino-5-chloro-2-phenyl-2H-pyridazin-3-one] | do not inhibit NAD^+ depletion | no protection; also recorded: does not significantly protect
2 | CN(C)c1cnn(-c2ccccc2)c(=O)c1N [PIP-1, 4-Amino-5-dimethylamino-2-phenyl-2H-pyridazin-3-one] | inhibit NAD^+ depletion | considerable protection; also recorded: protects dopaminergic neurons from rotenone induced cell death
